pIC50: −log10 of the molar value.

One may read the pIC50 as the negative decadic logarithm of the IC50, by convention in mol/L.

This assay has as its target T1, PD-1/PD-L1 (Homo sapiens, UniProt Q9NZQ7).
T1 construct: made in house; host or cells: HEK293T
As to the kind of experiment: PD-1/PD-L1 Homogenous Time-Resolved Fluorescence (HTRF) binding assay. The conditions noted are these: PD-L1-His 10 nM, PD-1-Ig 20 nM; value given as range class; read-out: Range or IC50. The method in brief: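 dPBS + 0.1% BSA + 0.05% Tween-20 buffer; Eu-cryptate anti-Ig 1 nM final, APC anti-His 20 nM final; HTRF read. Counter-assays: PD-1-Ig/PD-L2-His 20 & 5 nM, CD80-His/PD-L1-Ig 100 & 10 nM.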
On the technique in general: In TR-FRET formats the signal depends on donor and acceptor labels being close together.

T1 sequence (Q9NZQ7 with tags, fused parts or gaps): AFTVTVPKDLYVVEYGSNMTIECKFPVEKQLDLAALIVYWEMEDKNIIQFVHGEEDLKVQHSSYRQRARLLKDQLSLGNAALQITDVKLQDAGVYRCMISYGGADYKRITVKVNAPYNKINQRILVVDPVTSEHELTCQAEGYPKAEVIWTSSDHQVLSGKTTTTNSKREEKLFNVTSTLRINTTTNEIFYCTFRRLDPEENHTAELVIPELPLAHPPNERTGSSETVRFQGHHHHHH

In the case of `CC(CO)(CO)NCc1cc(Cl)c(OCc2cccc(-c3cccc(OCCCN4CC[C@@H](O)C4)c3Cl)c2Cl)cc1OCc1cncc(C#N)c1` [Example 2053, (R)-5-((4-chloro-5-((2,2′-dichloro-3′-(3-(3-hydroxypyrrolidin-1-yl)propoxy)-[1,1′-biphenyl]-3-yl)methoxy)-2-(((1,3-dihydroxy-2-methylpropan-2-yl)amino)methyl)phenoxy)methyl)nicotinonitrile], the pIC50 is 8.00 to 9.68. Take `CC(CO)(CO)NCc1cc(Cl)c(OCc2cccc(-c3cccc(OCCCNC[C@H](O)CO)c3Cl)c2Cl)cc1OCc1cncc(C#N)c1` [Example 2054, (S)-5-((4-chloro-5-((2,2′-dichloro-3′-(3-((2,3-dihydroxypropyl)amino)propoxy)-[1,1′-biphenyl]-3-yl)methoxy)-2-(((1,3-dihydroxy-2-methylpropan-2-yl)amino)methyl)phenoxy)methyl)nicotinonitrile]: the pIC50 was 8.00 to 9.68. With `CC(CO)(CO)NCc1cc(Cl)c(OCc2cccc(-c3cccc(OCCCN4CC[C@@H](O)C4)c3Cl)c2Cl)cc1OCc1cc(C#N)ccc1F` [Example 2055, (R)-3-((4-chloro-5-((2,2′-dichloro-3′-(3-(3-hydroxypyrrolidin-1-yl)propoxy)-[1,1′-biphenyl]-3-yl)methoxy)-2-(((1,3-dihydroxy-2-methylpropan-2-yl)amino)methyl)phenoxy)methyl)-4-fluorobenzonitrile], the pIC50 is 8.00 to 9.68. On to `Cc1c(COc2cc(OCc3cncc(C#N)c3)c(CNC(CO)CO)cc2Cl)cccc1-c1cccc(OCCCN2CCC(O)(C(=O)O)CC2)c1Cl` [Example 2056, 1-(3-((2-chloro-3′-((2-chloro-5-((5-cyanopyridin-3-yl)methoxy)-4-(((1,3-dihydroxypropan-2-yl)amino)methyl)phenoxy)methyl)-2′-methyl-[1,1′-biphenyl]-3-yl)oxy)propyl)-4-hydroxypiperidine-4-carboxylic Acid], for which the pIC50 is 8.00 to 9.68. The value for `Cc1c(COc2cc(OCc3cncc(C#N)c3)c(CN(C)C(CO)CO)cc2Cl)cccc1-c1cccc(OCCCNC[C@H](O)CO)c1Cl` [Example 2057, (S)-5-((4-chloro-5-((2′-chloro-3′-(3-((2,3-dihydroxypropyl)amino)propoxy)-2-methyl-[1,1′-biphenyl]-3-yl)methoxy)-2-(((1,3-dihydroxypropan-2-yl)(methyl)amino)methyl)phenoxy)methyl)nicotinonitrile] was 8.00 to 9.68; that for `C[C@](CO)(NCc1cc(Cl)c(OCc2cccc(-c3cccc(OCCCN4CCCCC4)c3Cl)c2Cl)cc1OCc1cncc(C#N)c1)C(=O)O` [Example 2058, (R)-2-((5-chloro-2-((5-cyanopyridin-3-yl)methoxy)-4-((2,2′-dichloro-3′-(3-(piperidin-1-yl)propoxy)-[1,1′-biphenyl]-3-yl)methoxy)benzyl)amino)-3-hydroxy-2-methylpropanoic Acid] was 8.00 to 9.68; that for `CC(CO)(CO)NCc1cc(Cl)c(OCc2cccc(-c3cccc(OCCCN4CC[C@@H](O)C4)c3Cl)c2Cl)cc1OCc1cccc(C#N)c1` [Example 2059, (R)-3-((4-chloro-5-((2,2′-dichloro-3′-(3-(3-hydroxypyrrolidin-1-yl)propoxy)-[1,1′-biphenyl]-3-yl)methoxy)-2-(((1,3-dihydroxy-2-methylpropan-2-yl)amino)methyl)phenoxy)methyl)benzonitrile] was 8.00 to 9.68. Regarding `CC(CO)(CO)NCc1cc(Cl)c(OCc2cccc(-c3cccc(OCCCNC[C@H](O)CO)c3Cl)c2Cl)cc1OCc1cccc(C#N)c1` [Example 2060, (S)-3-((4-chloro-5-((2,2′-dichloro-3′-(3-((2,3-dihydroxypropyl)amino)propoxy)-[1,1′-biphenyl]-3-yl)methoxy)-2-(((1,3-dihydroxy-2-methylpropan-2-yl)amino)methyl)phenoxy)methyl)benzonitrile], the pIC50 was 8.00 to 9.68. Consider `Cc1c(COc2cc(OCc3cncc(C#N)c3)c(CN[C@](C)(CO)C(=O)O)cc2Cl)cccc1-c1cccc(OCCCN2CCC(O)(CO)CC2)c1Cl` [Example 2061, (R)-2-((5-chloro-4-((2′-chloro-3′-(3-(4-hydroxy-4-(hydroxymethyl)piperidin-1-yl)propoxy)-2-methyl-[1,1′-biphenyl]-3-yl)methoxy)-2-((5-cyanopyridin-3-yl)methoxy)benzyl)amino)-3-hydroxy-2-methylpropanoic Acid], for which the pIC50 was 8.00 to 9.68. As to `CC(=O)NC1CCN(CCCOc2cccc(-c3cccc(COc4cc(OCc5cncc(C#N)c5)c(CNC(CO)CO)cc4Cl)c3C)c2Cl)CC1` [Example 2062, N-(1-(3-((2-chloro-3′-((2-chloro-5-((5-cyanopyridin-3-yl)methoxy)-4-(((1,3-dihydroxypropan-2-yl)amino)methyl)phenoxy)methyl)-2′-methyl-[1,1′-biphenyl]-3-yl)oxy)propyl)piperidin-4-yl)acetamide], the pIC50 is 8.00 to 9.68. The value for `Cc1c(COc2cc(OCc3cncc(C#N)c3)c(CNC(CO)CO)cc2Cl)cccc1-c1cccc(OCCCN2CCC(O)(CO)CC2)c1Cl` [Example 2063, 5-((4-chloro-5-((2′-chloro-3′-(3-(4-hydroxy-4-(hydroxymethyl)piperidin-1-yl)propoxy)-2-methyl-[1,1′-biphenyl]-3-yl)methoxy)-2-(((1,3-dihydroxypropan-2-yl)amino)methyl)phenoxy)methyl)nicotinonitrile] was 5.70 to 7.00. Under `CN(CCCOc1cccc(-c2cccc(COc3cc(OCc4cncc(C#N)c4)c(CN[C@](C)(CO)C(=O)O)cc3Cl)c2Cl)c1Cl)C[C@H](O)CO` [Example 2064, (R)-2-((5-chloro-2-((5-cyanopyridin-3-yl)methoxy)-4-((2,2′-dichloro-3′-(3-(((S)-2,3-dihydroxypropyl)(methyl)amino)propoxy)-[1,1′-biphenyl]-3-yl)methoxy)benzyl)amino)-3-hydroxy-2-methylpropanoic Acid] stands 8.00 to 9.68; under `C[C@](CO)(NCc1cc(Cl)c(OCc2cccc(-c3cccc(OCCCN4CCC(O)(CO)CC4)c3Cl)c2Cl)cc1OCc1cncc(C#N)c1)C(=O)O` [Example 2065, (R)-2-((5-chloro-2-((5-cyanopyridin-3-yl)methoxy)-4-((2,2′-dichloro-3′-(3-(4-hydroxy-4-(hydroxymethyl)piperidin-1-yl)propoxy)-[1,1′-biphenyl]-3-yl)methoxy)benzyl)amino)-3-hydroxy-2-methylpropanoic Acid], 8.00 to 9.68; under `CC(CO)(CO)NCc1cc(Cl)c(OCc2cccc(-c3cccc(OCCCN4CC[C@@H](O)C4)c3Cl)c2Cl)cc1OCc1cccc(Cl)c1` [Example 2066, (R)-2-((5-chloro-2-((3-chlorobenzyl)oxy)-4-((2,2′-dichloro-3′-(3-(3-hydroxypyrrolidin-1-yl)propoxy)-[1,1′-biphenyl]-3-yl)methoxy)benzyl)amino)-2-methylpropane-1,3-diol], 8.00 to 9.68.

As to `Cc1c(COc2cc(OCc3cncc(C#N)c3)c(CNC(C)(C)CO)cc2Cl)cccc1-c1cccc(OCCCN2CC[C@@H](O)C2)c1Cl` [Example 2067, (R)-5-((4-chloro-5-((2′-chloro-3′-(3-(3-hydroxypyrrolidin-1-yl)propoxy)-2-methyl-[1,1′-biphenyl]-3-yl)methoxy)-2-(((1-hydroxy-2-methylpropan-2-yl)amino)methyl)phenoxy)methyl)nicotinonitrile], the pIC50 was 8.00 to 9.68. Consider `Cc1c(COc2cc(OCc3cncc(C#N)c3)c(CN(C)CC(C)(C)O)cc2Cl)cccc1-c1cccc(OCCCN2CC[C@@H](O)C2)c1Cl` [Example 2068, (R)-5-((4-chloro-5-((2′-chloro-3′-(3-(3-hydroxypyrrolidin-1-yl)propoxy)-2-methyl-[1,1′-biphenyl]-3-yl)methoxy)-2-(((2-hydroxy-2-methylpropyl)(methyl)amino)methyl)phenoxy)methyl)nicotinonitrile], for which the pIC50 was 8.00 to 9.68. The value for `CC(=O)N[C@H]1CCN(CCCOc2cccc(-c3cccc(COc4cc(OCc5cncc(C#N)c5)c(CNC(CO)CO)cc4Cl)c3C)c2Cl)C1` [Example 2069, (S)—N-(1-(3-((2-chloro-3′-((2-chloro-5-((5-cyanopyridin-3-yl)methoxy)-4-(((1,3-dihydroxypropan-2-yl)amino)methyl)phenoxy)methyl)-2′-methyl-[1,1′-biphenyl]-3-yl)oxy)propyl)pyrrolidin-3-yl)acetamide] was 8.00 to 9.68. Regarding `CC(=O)N[C@H]1CCN(CCCOc2cccc(-c3cccc(COc4cc(OCc5cncc(C#N)c5)c(CN[C@](C)(CO)C(=O)O)cc4Cl)c3Cl)c2Cl)C1` [Example 2070, (R)-2-((4-((3′-(3-((S)-3-acetamidopyrrolidin-1-yl)propoxy)-2,2′-dichloro-[1,1′-biphenyl]-3-yl)methoxy)-5-chloro-2-((5-cyanopyridin-3-yl)methoxy)benzyl)amino)-3-hydroxy-2-methylpropanoic Acid], the pIC50 is 8.00 to 9.68. With `CC(=O)N[C@H]1CCN(CCCOc2cccc(-c3cccc(COc4cc(OCc5cncc(C#N)c5)c(CN[C@](C)(CO)C(=O)O)cc4Cl)c3C)c2Cl)C1` [Example 2071, (R)-2-((4-((3′-(3-((S)-3-acetamidopyrrolidin-1-yl)propoxy)-2′-chloro-2-methyl-[1,1′-biphenyl]-3-yl)methoxy)-5-chloro-2-((5-cyanopyridin-3-yl)methoxy)benzyl)amino)-3-hydroxy-2-methylpropanoic Acid], the pIC50 was 8.00 to 9.68. In the case of `CCN(Cc1cc(Cl)c(OCc2cccc(-c3cccc(OCCCN4CC[C@@H](O)C4)c3Cl)c2C)cc1OCc1cncc(C#N)c1)[C@](C)(CO)C(=O)O` [Example 2072, (R)-2-((5-chloro-4-((2′-chloro-3′-(3-((R)-3-hydroxypyrrolidin-1-yl)propoxy)-2-methyl-[1,1′-biphenyl]-3-yl)methoxy)-2-((5-cyanopyridin-3-yl)methoxy)benzyl)(ethyl)amino)-3-hydroxy-2-methylpropanoic Acid], the negative logarithm of the IC50 (pIC50) is 8.00 to 9.68.
